Experimental data reported in ChEMBL document CHEMBL6092217 (Eur J Med Chem, 2024).
Active and inactive are the calls of the source. No cut-off for these calls is given here.

How the values were obtained:
MCF7 = experiment: Antiproliferative activity against human MCF7 cells assessed as cell viability incubated for 72 hrs by MTT assay; type: functional, cell-based; conditions: MCF7, 72 h
HT-29 [1] = experiment: Antiproliferative activity against human HT-29 cells assessed as cell viability incubated for 72 hrs by MTT assay; type: functional, cell-based; conditions: HT-29, 72 h
Tubulin (Homo sapiens) [2] = biological target: T1, Tubulin (Homo sapiens) (UniProt P68371+Q9H4B7+P0DPH7+P68366+Q13509+Q71U36+P04350+Q3ZCM7+P07437+P68363+Q9BQE3+Q6PEY2+Q13885+Q9BVA1+Q9BUF5); experiment: Binding affinity to Tubulin colchicine binding site in human HT-29 cells assessed as inhibition of EBI-beta-tubulin adduct formation at 1 to 100 uM preincubated with compound for 2 hrs followed by EBI addition measured after 1.5 hrs by EBI competition based Western blotting analysis; type: cell-based; conditions: dose 1-100 µM, time 3.5 hrs
Tubulin (Homo sapiens) [3] = biological target: T1, Tubulin (Homo sapiens); experiment: Inhibition of tubulin polymerization in human HT-29 cells assessed as reduction in beta-tubulin expression 50 to 200 nM incubated for 24 hrs by Western blot analysis; type: cell-based; conditions: dose 50-200 nM
Tubulin (Homo sapiens) [4] = biological target: T1, Tubulin (Homo sapiens); experiment: Inhibition of tubulin polymerization in human HT-29 cells assessed as downregulation of acetylated alpha-tubulin expression 50 to 200 nM incubated for 24 hrs by Western blot analysis; type: cell-based; conditions: dose 50-200 nM
HT-29 [5] = experiment: Induction of cell cycle arrest in human HT-29 cells assessed as accumulation of cells at G1 phase at 50 nM incubated for 24 hrs by flow cytometry analysis (reference value: 67.6%); type: functional
HT-29 [6] = experiment: Induction of cell cycle arrest in human HT-29 cells assessed as accumulation of cells at G1 phase at 100 nM incubated for 24 hrs by flow cytometry analysis (reference value: 67.6%); type: functional
HT-29 [7] = experiment: Induction of cell cycle arrest in human HT-29 cells assessed as accumulation of cells at S phase at 200 nM incubated for 24 hrs by flow cytometry analysis (reference value: 20.8 %); type: functional
HT-29 [8] = experiment: Induction of cell cycle arrest in human HT-29 cells assessed as accumulation of cells at G2 phase at 200 nM incubated for 24 hrs by flow cytometry analysis (reference value: 13 %); type: functional
HT-29 [9] = experiment: Induction of cell cycle arrest in human HT-29 cells assessed as increase in cyclin-B1 expression incubated for 24 hrs by Western blot analysis; type: functional, cell-based; conditions: dose 50-200 nM
HT-29 [10] = experiment: Induction of cell cycle arrest in human HT-29 cells assessed as effect on CDC2 expression at 50 to 200 nM incubated for 24 hrs by Western blot analysis; type: functional, cell-based; conditions: dose 50-200 nM
HT-29 [11] = experiment: Induction of cell cycle arrest in human HT-29 cells assessed as reduction in p-CDC2 expression incubated for 24 hrs by Western blot analysis; type: functional, cell-based; conditions: dose 50-200 nM
HT-29 [12] = experiment: Induction of apoptosis in human HT-29 cells assessed as early apoptotic cells at 50 nM incubated for 24 hrs by FITC/PI staining based flow cytometry analysis (reference value: 8.14%); type: functional
HT-29 [13] = experiment: Induction of apoptosis in human HT-29 cells assessed as viable cells at 100 nM incubated for 24 hrs by FITC/PI staining based flow cytometry analysis (reference value: 91.6%); type: functional; conditions: read-out: Activity
HT-29 [14] = experiment: Induction of apoptosis in human HT-29 cells assessed as early apoptotic cells at 100 nM incubated for 24 hrs by FITC/PI staining based flow cytometry analysis (reference value: 8.14%); type: functional
HT-29 [15] = experiment: Induction of apoptosis in human HT-29 cells assessed as late apoptotic cells at 100 nM incubated for 24 hrs by FITC/PI staining based flow cytometry analysis (reference value: 0.20%); type: functional
HT-29 [16] = experiment: Induction of apoptosis in human HT-29 cells assessed as necrotic cells at 100 nM incubated for 24 hrs by FITC/PI staining based flow cytometry analysis (reference value: 0.017 %); type: functional
HT-29 [17] = experiment: Induction of apoptosis in human HT-29 cells assessed as viable cells at 200 nM incubated for 24 hrs by FITC/PI staining based flow cytometry analysis (reference value: 91.6%); type: functional; conditions: read-out: Activity
HT-29 [18] = experiment: Induction of apoptosis in human HT-29 cells assessed as early apoptotic cells at 200 nM incubated for 24 hrs by FITC/PI staining based flow cytometry analysis (reference value: 8.14%); type: functional
HT-29 [19] = experiment: Induction of apoptosis in human HT-29 cells assessed as upregulation of Bax level at 50 to 200 nM incubated for 24 hrs by Western blot analysis; type: functional, cell-based; conditions: dose 50-200 nM
HT-29 [20] = experiment: Induction of apoptosis in human HT-29 cells assessed as upregulation of cleaved PARP level at 50 to 200 nM incubated for 24 hrs by Western blot analysis; type: functional, cell-based; conditions: dose 50-200 nM
Mitochondrial membrane [21] = experiment: Induction of mitochondrial membrane potential loss in human HT-29 cells assessed as decrease in red fluorescence at 50 to 100 nM incubated for 24 hrs by JC-1 staining based confocal microscopic analysis; type: cell membranes; conditions: dose 50-100 nM
Mitochondrial membrane [22] = experiment: Induction of mitochondrial membrane potential loss in human HT-29 cells incubated for 24 hrs by JC-1 staining based confocal microscopic analysis; type: cell membranes; conditions: dose 50-100 nM
HUVEC = experiment: Inhibition of tube formation in HUVEC cells incubated for 6 hrs by inverted microscopic analysis; type: functional, cell-based; conditions: Homo sapiens, dose 50-100 nM
HT-29 [23] = experiment: Antitumor activity against human HT-29 cells xenografted in BALB/c mouse assessed as tumor growth inhibition at 10 mg/kg, iv measured after 21 days; type: functional; conditions: HT-29, 504 h, time 21 day, read-out: TGI
HT-29 [24] = experiment: Antitumor activity against human HT-29 cells xenografted in BALB/c mouse assessed as tumor growth inhibition at 20 mg/kg, iv measured after 21 days; type: functional; conditions: HT-29, 504 h, time 21 day, read-out: TGI
[25] = Toxicity in BALB/c mouse assessed as liver damage at 10 to 40 mg/kg, iv measured after 21 days by H and E staining based analysis; type: organism-based; conditions: in vivo, 504 h, dose 10-40 mg/kg, time 21 day
[26] = Toxicity in BALB/c mouse assessed as spleen damage at 10 to 40 mg/kg, iv measured after 21 days by H and E staining based analysis; type: organism-based; conditions: in vivo, 504 h, dose 10-40 mg/kg, time 21 day
[27] = Toxicity in ICR mouse assessed as effect on ALT level at 10 to 40 mg/kg, iv administered every 2 days and measured after 14 days; type: organism-based; conditions: in vivo, 336 h, dose 10-40 mg/kg, time 14 day
[28] = Toxicity in ICR mouse assessed as effect on CK level at 10 to 40 mg/kg, iv administered every 2 days and measured after 14 days; type: organism-based; conditions: in vivo, 336 h, dose 10-40 mg/kg, time 14 day
[29] = Toxicity in ICR mouse assessed as effect on granulocytes count at 10 to 40 mg/kg, iv administered every 2 days and measured after 14 days; type: organism-based; conditions: in vivo, 336 h, dose 10-40 mg/kg, time 14 day
[30] = Toxicity in ICR mouse assessed as effect on lymphocytes count at 10 to 40 mg/kg, iv administered every 2 days and measured after 14 days; type: organism-based; conditions: in vivo, 336 h, dose 10-40 mg/kg, time 14 day
[31] = Toxicity in ICR mouse assessed as effect on RBC count at 10 to 40 mg/kg, iv administered every 2 days and measured after 14 days; type: organism-based; conditions: in vivo, 336 h, dose 10-40 mg/kg, time 14 day
[32] = Volume of distribution at steady state in Sprague-Dawley rat at 5 mg/kg, iv measured upto 24 hrs by HPLC-MS analysis; type: ADME, organism-based; conditions: in vivo, read-out: Vdss
[33] = MRT (0 to t) in Sprague-Dawley rat at 5 mg/kg, iv measured upto 24 hrs by HPLC-MS analysis; type: ADME, organism-based; conditions: in vivo

IC50 (MCF7): 110 nM | IC50 (HT-29 [1]): 51 nM | inhibition (Tubulin (Homo sapiens) [2]): Active | inhibition (Tubulin (Homo sapiens) [3]): Active | inhibition (Tubulin (Homo sapiens) [4]): Active | Activity (Mitochondrial membrane [21]): Active | Activity (Mitochondrial membrane [22]): Dose-dependent-effect | Vd [32]: 1.03 L/kg | MRT last at 24 h [33]: 46.8 min
SMILES: COc1ccc(N(C)c2nc(/C=C/c3cccc(OC)c3)nc3ccccc23)cc1
Activity (HT-29 [5]): 64.6% | Activity (HT-29 [6]): 35.6% | Activity (HT-29 [7]): 7.31% | Activity (HT-29 [8]): 69.8% | Activity (HT-29 [9]): Dose-dependent-effect | Activity (HT-29 [10]): inactive | Activity (HT-29 [11]): Dose-dependent-effect | Activity (HT-29 [12]): 12.7% | viability at 0.1 µM (HT-29 [13]): 67.2% | Activity (HT-29 [14]): 2.87% | Activity (HT-29 [15]): 27.2% | Activity (HT-29 [16]): 2.72% | viability at 0.2 µM (HT-29 [17]): 43.2% | Activity (HT-29 [18]): 18.2% | Activity (HT-29 [19]): Active | Activity (HT-29 [20]): Active | inhibition (HUVEC): Dose-dependent-effect | inhibition in vivo at 10 mg/kg (HT-29 [23]): 53% | inhibition in vivo at 20 mg/kg (HT-29 [24]): 64.7% | Activity [25]: Non-toxic | Activity [26]: Non-toxic | Activity [27]: Non-toxic | Activity [28]: Non-toxic | Activity [29]: Non-toxic | Activity [30]: Non-toxic | Activity [31]: Non-toxic
